How the values were obtained:
Assay type in all cases: cell-based
[1] = tested on: collagen I gene; assay: Preventive effect on collagen I gene expression in fibroblasts treated with hydrocortisone (hormonal environment)
Excerpt: (§1) The quantitative real-time polymerase chain reaction (qRT-PCR) is a method that makes it possible to measure in a specific and quantitative way the expression of genes of interest by amplification. Quantification is based on the real-time monitoring of gene amplification using SYBR Green as a reporter system. SYBR Green is a molecule with fluorescent properties which is intercalated in double-stranded DNA. […]
(§2) The quantities of DNA are compared in the exponential part, the time during which the increase in the quantity of DNA is proportional to the initial quantity of the matrix. […]
(§3) At the end of the treatment of the cells, total RNA was extracted (RNeasy MiniKit) and then assayed quantitatively in chips using the Experion system (Experion RNA StdSens kit). […]
(§4) Expression of the genes of reference is analyzed in the same samples as those for which the expression of the genes of interest is evaluated in order to normalize the results.
(§5) Variation in the number of copies of the gene of interest during the treatment is then calculated according to the following formula: ΔΔCt=ΔCtcontrol−ΔCttreatment
(§6) Finally, the relative quantity or level of expression of the genes of interest normalized by the level of expression of the reference genes in the untreated and treated samples is obtained by the formula RQ=2^ΔΔCt.
(§7) The significance of the results was evaluated by a Student's t-test: *p<0.05, **p<0.01.

[2] = tested on: normal human keratinocytes; assay: Prerequisite cutaneous tolerance: pro-inflammatory potential, interleukins 1 and 8 and TNF-α assayed in the cell supernatant; settings: 0.2% dry matter
Experimental: A. Prerequisite Cutaneous Tolerance • Inflammation: The pro-inflammatory potential of arabinogalactan was evaluated on normal human keratinocytes. Interleukins 1 and 8 as well as TNF-α, early mediators of inflammation, were assayed in the cell supernatant.

[3] = tested on: fibroblasts; assay: Study of fibroblast proliferation by the MTT method; settings: 0.2% arabinogalactan, 48 hours of treatment
Experimental: The MTT [3-(4,5-dimethylthiazol-2-yl)-2,5-diphenyltetrazolium bromide] assay is a colorimetric test which measures cell viability. MTT is a yellow water-soluble tetrazolium salt; metabolically active cells are capable of reducing it into formazan blue crystals.
At D0, the fibroblasts are inoculated in RPMI medium with 1% FCS.
At D1, the cells are treated with RPMI with 10% FCS (positive control) or with 0.2% arabinogalactan for 48 hours.
At the end of the treatment, cell viability is quantified by an MTT assay: after 3 hours of contact with MTT, the formazan crystals formed are solubilized by DMSO and the optical density, proportional to the quantity of metabolically active and thus living cells, is read at 570 nm against the blank (without cells).
as §7

[4] = tested on: collagen type III gene; assay: Gene expression of collagen III in normal fibroblasts by quantitative real-time PCR; settings: 48 hours of treatment, 0.2% dry matter arabinogalactan or 5 ng/ml TGF-β1
Excerpt: as §1, §2, §3, §4, §5, §6, §7

[5] = tested on: gene coding for collagen type I; assay: Gene expression of collagen I in normal fibroblasts by quantitative real-time PCR; settings: 48-hour treatment, normalized to GAPDH, 0.2% arabinogalactan or 5 ng/ml TGF-β1
Excerpt: as §1, §2, §3, §4, §5, §6, §7

[6] = tested on: IL-1β; assay: Anti-inflammatory potential: IL-1β ELISA in keratinocytes stimulated with PMA
Experimental: Keratinocytes were inoculated in KGM2 medium. After 24 hours of incubation, the cells were pre-treated with 0.2% (dry matter) arabinogalactan for 24 hours. Next, the cells were stimulated by adding 10 μg/ml PMA (phorbol-12-myristate-13-acetate; Sigma) for 16 hours, in order to mimic inflammation.
At the end of the treatment, the cell supernatants were collected and IL-1β was assayed using ELISA kits (R&D Systems).
On the cell layers, a neutral red assay was carried out: optical density, proportional to the quantity of living cells, is read at 540 nm.
The quantity of IL-1β is expressed by living cells according to the formula: OD ELISA IL-1β/OD540.
as §7

Compound: C[C@]12CCC(=O)C=C1CC[C@@H]1[C@@H]2[C@@H](O)C[C@@]2(C)[C@H]1CC[C@]2(O)C(=O)CO [hydrocortisone, reference compound]
- inhibition of expression of the collagen I gene ([1]; fibroblasts, 50 μM hydrocortisone, 48 hours of treatment): 57%

Compound: arabinogalactan
- pro-inflammatory potential [2]: not pro-inflammatory
- salting out of interleukins 1 and 8 or TNF-α ([2]; cell supernatant): does not lead to salting out of interleukins 1 and 8 or TNF-α
- fibroblast proliferation / cell regeneration (MTT, OD570) [3]: +20%
- increase of expression of the collagen type III gene [4]: +81%
- increase of expression of the gene coding for collagen type I [5]: +38%
- increase of expression of collagen I in the presence of hydrocortisone ([1]; fibroblasts pretreated 24 hours with 0.2% arabinogalactan, then arabinogalactan + 50 μM hydrocortisone 48 hours): 37%
- inhibition of salting out of IL-1β (OD ELISA/OD540) ([6]; keratinocytes pretreated 24 hours with 0.2% dry matter arabinogalactan, then 10 μg/ml PMA 16 hours): −21%

Compound: TGF-β: growth factor with a strong capacity to induce molecules of the extracellular matrix; used as a positive control [reference compound]
- increase of expression of the collagen type III gene [4]: 147%
- increase of expression of the gene coding for collagen type I [5]: +223%

Compound: CCCCCCCCCCCCCC(=O)O[C@@H]1[C@@H](C)[C@@]2(O)[C@@H](C=C(CO)C[C@]3(O)C(=O)C(C)=C[C@@H]23)[C@@H]2C(C)(C)[C@]12OC(C)=O [PMA, phorbol-12-myristate-13-acetate, reference compound]
- salting out of IL-1β under stress ([6]; keratinocytes, 10 μg/ml PMA 16 hours): massively salt-out IL-1β

Source: patent publication US8765198B2, “Anti-stretch mark active agent, and compositions containing same” (Laboratoires Expanscience, priority 2008, dated 2014)
